Data as given in patent US9233981B1, “Substituted phenyl hexahydropyrano[3,4-d][1,3]thiazin-2-amine compounds” (Pfizer Inc., priority 2013, dated 2016).

Tests used:
[1] = biological target: BACE1 enzyme (Homo sapiens (Human), UniProt P56817); assay: BACE1 Cell-Free Assay (fluorescence polarization, cleavage of synthetic APP substrate); assay type: biochemical; details: geometric mean of 2-3 determinations; Examples 32-34 (footnote b) single determination
Excerpt: Beta-secretase (BACE) is one of the enzymes involved in the generation of the amyloid beta peptide found in the amyloid plaques of Alzheimer's Disease patients. This assay measures the inhibition of the beta-secretase enzyme as it cleaves a non-native peptide.
A synthetic APP substrate that can be cleaved by beta-secretase having N-terminal biotin and made fluorescent by the covalent attachment of Oregon Green at the Cys residue is used to assay beta-secretase activity in the presence or absence of the inhibitory compounds. The substrate is Biotin-GLTNIKTEEISEISY^EVEFR-C[Oregon Green]KK-OH. The BACE1 enzyme is affinity purified material from conditioned media of CHO-K1 cells that have been transfected with a soluble BACE construct (BACE1deltaTM96His). Compounds are incubated in a log dose response curve from a top concentration of 100 μM with BACE1 enzyme and the biotinylated fluorescent peptide in 384-well black plates (Thermo Scientific #4318). BACE1 is at a final concentration of 0.1 nM with a final concentration of peptide substrate of 150 nM in a reaction volume of 30 μL assay buffer [100 mM sodium acetate, pH 4.5 (brought to pH with acetic acid), and 0.001% Tween-20]. Plates are covered and incubated for 3 hours at 37° C. The reaction is stopped with the addition of 30 μL of 1.5 μM Streptavidin (Pierce, #21125). After a 10 minute incubation at room temperature, plates are read on a PerkinElmer EnVision for fluorescence polarization (Ex485 nm/Em530 nm). The activity of the beta-secretase enzyme is detected by changes in the fluorescence polarization that occur when the substrate is cleaved by the enzyme.

[2] = test system: sAPPβ levels in H4 human neuroglioma cells over-expressing the wild-type human APP695; assay: Whole Cell Assay (In Vitro sAPPβ Assay), TMB-ELISA; assay type: cell-based; details: 18 hours, geometric mean of 2-3 determinations, Examples 32-34 (footnote b) single determination
Protocol: Whole Cell Assay (In Vitro sAPPpβ Assay):
H4 human neuroglioma cells over-expressing the wild-type human APP695 are treated for 18 hours with compound in a final concentration 1% DMSO. sAPPβ levels are measured using TMB-ELISA with capture APP N-terminal antibody (Affinity BioReagents, OMA1-03132), wild-type sAPPβ specific reporter p192 (Elan), and tertiary anti rabbit-HRP (GE Healthcare).

Chain of BACE1 enzyme (P56817 46-457): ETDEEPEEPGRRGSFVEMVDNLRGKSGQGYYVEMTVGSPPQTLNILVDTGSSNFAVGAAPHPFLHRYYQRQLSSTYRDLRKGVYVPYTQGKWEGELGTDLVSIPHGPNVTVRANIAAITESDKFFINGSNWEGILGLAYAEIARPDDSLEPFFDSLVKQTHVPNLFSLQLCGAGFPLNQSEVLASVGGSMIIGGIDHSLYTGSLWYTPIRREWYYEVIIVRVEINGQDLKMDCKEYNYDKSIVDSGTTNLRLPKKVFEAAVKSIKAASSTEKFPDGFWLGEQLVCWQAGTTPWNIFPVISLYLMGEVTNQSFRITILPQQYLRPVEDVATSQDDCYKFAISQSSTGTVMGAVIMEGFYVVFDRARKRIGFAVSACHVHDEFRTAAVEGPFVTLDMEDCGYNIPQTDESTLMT

| SMILES | IC50 [1] [nM] | IC50 [2] [nM] |
| --- | --- | --- |
| COc1ccc([C@H]2C[C@H]3CSC(N)=N[C@@]3(c3ccc(F)cc3F)CO2)cc1F [Example 19, (4aR,6R,8aS)-8a-(2,4-difluorophenyl)-6-(3-fluoro-4-methoxyphenyl)-4,4a,5,6,8,8a-hexahydropyrano[3,4-d][1,3]thiazin-2-amine] | 44 | 0.023 |
| C[C@H]1SC(N)=N[C@@]2(c3ccc(F)cc3F)CO[C@@H](c3ccc(F)cc3)C[C@@H]12 [Example 32, (4R,4aR,6R,8aS)-8a-(2,4-Difluorophenyl)-6-(4-fluorophenyl)-4-methyl-4,4a,5,6,8,8a-hexahydropyrano[3,4-d][1,3]thiazin-2-amine] | 15 | 0.004 |
| Cc1cc(F)cc([C@H]2C[C@H]3CSC(N)=N[C@@]3(c3ccc(F)cc3F)CO2)c1 [Example 10, (4aR,6R,8aS)-8a-(2,4-difluorophenyl)-6-(3-fluoro-5-methylphenyl)-4,4a,5,6,8,8a-hexahydropyrano[3,4-d][1,3]thiazin-2-amine] | 16 | 0.038 |
| N#Cc1cccc([C@H]2C[C@H]3CSC(N)=N[C@@]3(c3ccc(F)cc3F)CO2)c1 [Example 29, 3-[(4aR,6R,8aS)-2-amino-8a-(2,4-difluorophenyl)-4,4a,5,6,8,8a-hexahydropyrano[3,4-d][1,3]thiazin-6-yl]benzonitrile] | 99 | 0.012 |
| NC1=N[C@@]2(c3ccc(F)cc3F)CO[C@@H](c3ccc(OC(F)(F)F)cc3)C[C@H]2CS1 [Example 15, (4aR,6R,8aS)-8a-(2,4-difluorophenyl)-6-[4-(trifluoromethoxy)phenyl]-4,4a,5,6,8,8a-hexahydropyrano[3,4-d][1,3]thiazin-2-amine] | 21 | 0.142 |
| COC(C)c1ccc([C@H]2C[C@H]3CSC(N)=N[C@@]3(c3ccc(F)cc3F)CO2)cc1 (stereo partly drawn) [Example 28, (4aR,6R,8aS)-8a-(2,4-difluorophenyl)-6-[4-(1-methoxyethyl)phenyl]-4,4a,5,6,8,8a-hexahydropyrano[3,4-d][1,3]thiazin-2-amine] | 210 | 0.055 |
| C[C@H]1SC(N)=N[C@@]2(c3ccc(F)cc3F)CO[C@@H](c3cccc(C#N)c3)C[C@@H]12 [Example 34, (4R,4aR,6R,8aS)-8a-(2,4-Difluorophenyl)-6-(3-cyanophenyl)-4-methyl-4,4a,5,6,8,8a-hexahydropyrano[3,4-d][1,3]thiazin-2-amine] | 14 | 0.004 |
| Cc1ccc([C@H]2C[C@H]3CSC(N)=N[C@@]3(c3ccc(F)cc3F)CO2)cc1F [Example 9, (4aR,6R,8aS)-8a-(2,4-difluorophenyl)-6-(3-fluoro-4-methylphenyl)-4,4a,5,6,8,8a-hexahydropyrano[3,4-d][1,3]thiazin-2-amine] | 13 | 0.012 |
| C[C@H]1SC(N)=N[C@@]2(c3ccc(F)cc3F)CO[C@@H](c3ccc(C#N)cc3)C[C@@H]12 [Example 33, (4R,4aR,6R,8aS)-8a-(2,4-Difluorophenyl)-6-(4-cyanophenyl)-4-methyl-4,4a,5,6,8,8a-hexahydropyrano[3,4-d][1,3]thiazin-2-amine] | 11 | 0.006 |
| COc1cc(F)cc([C@H]2C[C@H]3CSC(N)=N[C@@]3(c3ccc(F)cc3F)CO2)c1 [Example 21, (4aR,6R,8aS)-8a-(2,4-difluorophenyl)-6-(3-fluoro-5-methoxyphenyl)-4,4a,5,6,8,8a-hexahydropyrano[3,4-d][1,3]thiazin-2-amine] | 335 | 0.216 |
| NC1=N[C@@]2(c3ccc(F)cc3F)CO[C@@H](c3ccc(C(F)(F)F)cc3)C[C@H]2CS1 [Example 14, (4aR,6R,8aS)-8a-(2,4-difluorophenyl)-6-[4-(trifluoromethyl)phenyl]-4,4a,5,6,8,8a-hexahydropyrano[3,4-d][1,3]thiazin-2-amine] |  | 0.176 |
| NC1=N[C@@]2(c3ccc(F)cc3F)CO[C@@H](c3ccc4c(c3)CCO4)C[C@H]2CS1 [Example 26, (4aR,6R,8aS)-8a-(2,4-difluorophenyl)-6-(2,3-dihydro-1-benzofuran-5-yl)-4,4a,5,6,8,8a-hexahydropyrano[3,4-d][1,3]thiazin-2-amine] | 6 | 0.005 |
| CCOc1ccc([C@H]2C[C@H]3CSC(N)=N[C@@]3(c3ccc(F)cc3F)CO2)cc1 [Example 23, (4aR,6R,8aS)-8a-(2,4-difluorophenyl)-6-(4-ethoxyphenyl)-4,4a,5,6,8,8a-hexahydropyrano[3,4-d][1,3]thiazin-2-amine] | 11 | 0.021 |
| NC1=N[C@@]2(c3ccc(F)cc3F)CO[C@@H](c3cccc(F)c3)C[C@H]2CS1 [Example 2, (4aR,6R,8aS)-8a-(2,4-difluorophenyl)-6-(3-fluorophenyl)-4,4a,5,6,8,8a-hexahydropyrano[3,4-d][1,3]thiazin-2-amine] | 22 | 0.009 |

Continued, values first:

| IC50 [1] [nM] | IC50 [2] [nM] | SMILES |
| --- | --- | --- |
| 214 | 0.095 | COc1cc([C@H]2C[C@H]3CSC(N)=N[C@@]3(c3ccc(F)cc3F)CO2)ccc1F [Example 18, (4aR,6R,8aS)-8a-(2,4-difluorophenyl)-6-(4-fluoro-3-methoxyphenyl)-4,4a,5,6,8,8a-hexahydropyrano[3,4-d][1,3]thiazin-2-amine] |
| 397 | 0.248 | COc1ccc(F)c([C@H]2C[C@H]3CSC(N)=N[C@@]3(c3ccc(F)cc3F)CO2)c1 [Example 22, (4aR,6R,8aS)-8a-(2,4-difluorophenyl)-6-(2-fluoro-5-methoxyphenyl)-4,4a,5,6,8,8a-hexahydropyrano[3,4-d][1,3]thiazin-2-amine] |
| 15 | 0.016 | NC1=N[C@@]2(c3ccc(F)cc3F)CO[C@@H](c3ccc(Cl)cc3)C[C@H]2CS1 [Example 12, (4aR,6R,8aS)-6-(4-chlorophenyl)-8a-(2,4-difluorophenyl)-4,4a,5,6,8,8a-hexahydropyrano[3,4-d][1,3]thiazin-2-amine] |
| 29 | 0.018 | COc1ccc([C@H]2C[C@H]3CSC(N)=N[C@@]3(c3ccc(F)cc3F)CO2)cc1 [Example 16, (4aR,6R,8aS)-8a-(2,4-difluorophenyl)-6-(4-methoxyphenyl)-4,4a,5,6,8,8a-hexahydropyrano[3,4-d][1,3]thiazin-2-amine] |
| 24 | 0.005 | Cc1ccc([C@H]2C[C@H]3CSC(N)=N[C@@]3(c3ccc(F)cc3F)CO2)cc1 [Example 6, (4aR,6R,8aS)-8a-(2,4-difluorophenyl)-6-(4-methylphenyl)-4,4a,5,6,8,8a-hexahydropyrano[3,4-d][1,3]thiazin-2-amine] |
| 970 | 0.665 | Cc1ccccc1[C@H]1C[C@H]2CSC(N)=N[C@@]2(c2ccc(F)cc2F)CO1 [Example 7, (4aR,6R,8aS)-8a-(2,4-difluorophenyl)-6-(2-methylphenyl)-4,4a,5,6,8,8a-hexahydropyrano[3,4-d][1,3]thiazin-2-amine] |
| 83 | 0.039 | COc1ccc([C@H]2C[C@H]3CSC(N)=N[C@@]3(c3ccc(F)cc3F)CO2)c(F)c1 [Example 20, (4aR,6R,8aS)-8a-(2,4-difluorophenyl)-6-(2-fluoro-4-methoxyphenyl)-4,4a,5,6,8,8a-hexahydropyrano[3,4-d][1,3]thiazin-2-amine] |
| 161 | 0.071 | COCc1cccc([C@H]2C[C@H]3CSC(N)=N[C@@]3(c3ccc(F)cc3F)CO2)c1 [Example 24, (4aR,6R,8aS)-8a-(2,4-difluorophenyl)-6-[3-(methoxymethyl)phenyl]-4,4a,5,6,8,8a-hexahydropyrano[3,4-d][1,3]thiazin-2-amine] |
| 86 | 0.055 | NC1=N[C@@]2(c3ccc(F)cc3F)CO[C@@H](c3ccccc3F)C[C@H]2CS1 [Example 3, (4aR,6R,8aS)-8a-(2,4-difluorophenyl)-6-(2-fluorophenyl)-4,4a,5,6,8,8a-hexahydropyrano[3,4-d][1,3]thiazin-2-amine] |
| 2210 | 0.691 | COc1ccccc1[C@H]1C[C@H]2CSC(N)=N[C@@]2(c2ccc(F)cc2F)CO1 [Example 17, (4aR,6R,8aS)-8a-(2,4-difluorophenyl)-6-(2-methoxyphenyl)-4,4a,5,6,8,8a-hexahydropyrano[3,4-d][1,3]thiazin-2-amine] |
| 14 | 0.006 | NC1=N[C@@]2(c3ccc(F)cc3F)CO[C@@H](c3ccc(F)cc3)C[C@H]2CS1 [Example 1, (4aR,6R,8aS)-8a-(2,4-difluorophenyl)-6-(4-fluorophenyl)-4,4a,5,6,8,8a-hexahydropyrano[3,4-d][1,3]thiazin-2-amine] |
